In brackets after ≈: the same amount, converted by molar mass. Read-outs that look alike come from different tables or passages of the source. Residues, ends and D or L forms follow the SMILES beside them.
Tests used:
[1] = tested on: E. coli clinical isolates; assay: microbe, parasite or virus in culture
Outline: (§1)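 MIC90 from CLSI broth microdilution (M07-A9) in two clinical-isolate panels. US panel (331 isolates, 2010-2012): AA139 diluted in 0.01% acetic acid/0.1% BSA. Worldwide panel (445 isolates, 2011-2013, four regions): CAMHB, with 0.002% Tween 80 added for AA139 and polymyxin B.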

[2] = tested on: K. pneumoniae clinical isolates; assay: microbe, parasite or virus in culture
Outline: as §1

[3] = tested on: K. pneumoniae (#3010 & ST258); assay: microbe, parasite or virus in culture; format: cell-based, Klebsiella pneumoniae
Procedure: The test media was cation-adjusted MHB (CAMHB, Becton Dickinson) supplemented with 2% Noble Agar (Becton Dickinson) and additionally for AA139 with 0.1% BSA. The agar dilution MIC values were determined as recommended by Clinical and Laboratory Standards Institute (CLSI)[47]. […] The inoculum for the spontaneous mutation plates targeted 10^9 to 10^10 colony-forming units (CFU) per plate. The viable count of each suspension was determined by plating serial ten-fold dilutions onto MHB/NA in duplicate. In addition, agar plates without drug were inoculated as positive controls. Plates were inspected for growth at both 24 and 48 h. Colony counts were determined manually. Using the counts at 48 h, the spontaneous mutation frequency was calculated using the following equation: (average number of colonies from duplicate selection plates)/(total number of cells inoculated onto each plate). If there were no colonies on the antibiotic selection plates, the spontaneous mutation frequency was reported as less than the frequency observed with one colony to indicate that the spontaneous mutation frequency was less than the limit of detection (one CFU).

L. monocytogenes = assay: microbe, parasite or virus in culture; conditions: for MIC: Listeria monocytogenes, ATCC19112, read-out: BMD MIC
Outline: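 MICs were scored by eye after 18-20 h static incubation at 37 °C, with bacteria at 5 × 10^5 CFU mL^−1 in MHB. Peptides were serially diluted 2-fold over 12 points, top 128 or 64 μg mL^−1. CAMHB (CLSI) and 1% agarose-MHB variants were also run, at least six replicates.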

E. coli ATCC 25922 = format: cell-based, Escherichia coli
A. baumannii ATCC 19636 = assay: microbe, parasite or virus in culture; format: cell-based, Acinetobacter baumannii; conditions: for MIC: Acinetobacter baumannii, ATCC19636, read-out: MIC, Survanta (5%)
[4] = E. coli ATCC 25922, FDA control strain, BMD with 5% Survanta lung surfactant, mode, or median where no mode, n=4 to 6, where n=2 differs the higher value
[5] = A. baumannii ATCC 19636, type strain, BMD with 5% Survanta lung surfactant, mode, or median where no mode, n=4 to 6, where n=2 differs the higher value
[6] = A. baumannii ATCC 19636, type strain, BMD with 5% Survanta lung surfactant, replicate 2
[7] = A. baumannii ATCC 19636, type strain, BMD with 5% Survanta lung surfactant, replicate 3
[8] = A. baumannii ATCC 19636, type strain, BMD with 5% Survanta lung surfactant, replicate 4
[9] = A. baumannii ATCC 19636 type strain, n=2 to 6, mode or median
[10] = Escherichia coli, US isolates 2010–2012, E. coli MDR, n = 31
[11] = Escherichia coli, US isolates 2010–2012, E. coli Non-MDR, n = 24
[12] = Worldwide isolates 2011-2013, E. coli n = 112
[13] = Klebsiella pneumoniae, US isolates 2010–2012, K. pneumoniae Non-MDR, n = 24
[14] = Klebsiella pneumoniae, US isolates 2010–2012, K. pneumoniae XDR, n = 55
[15] = Worldwide isolates 2011-2013, K. pneumoniae n = 114
[16] = A. baumannii ATCC 19636, type strain, BMD with 5% Survanta lung surfactant, replicate 1
[17] = L. monocytogenes ATCC 19112, MHB, mode of 6 replicates

## CC(C)[C@@H]1NC(=O)[C@H](Cc2ccc(O)cc2)NC(=O)[C@H](Cc2c[nH]c3ccccc23)NC(=O)[C@@H](NC(=O)[C@H](Cc2ccccc2)NC(=O)CN)CSSC[C@@H](C(=O)N[C@@H](CC(N)=O)C(=O)O)NC(=O)[C@H](CCCNC(=N)N)NC(=O)[C@H](CCCNC(=N)N)NC(=O)[C@H](Cc2ccc(O)cc2)NC(=O)[C@@H]2CSSC[C@H](NC1=O)C(=O)N[C@@H](C)C(=O)N[C@@H](CCCNC(=N)N)C(=O)N[C@@H](CCCNC(=N)N)C(=O)N[C@@H](CC(N)=O)C(=O)NCC(=O)N[C@@H](C)C(=O)N[C@@H](CCCNC(=N)N)C(=O)N[C@@H](C(C)C)C(=O)N2 [AA139] (HELM PEPTIDE1{G.F.C.W.Y.V.C.A.R.R.N.G.A.R.V.C.Y.R.R.C.N}$PEPTIDE1,PEPTIDE1,3:R3-20:R3|PEPTIDE1,PEPTIDE1,7:R3-16:R3$$$V2.0)
[1]; E. coli with a colistin MIC of 4 to 16 μg mL^−1, US panel
  MIC against colistin-resistant isolates (did not surpass): ≤ 0.5 µg/mL
[1]; US isolates 2010–2012, E. coli MDR, n = 31
  MIC90: 0.5 µg/mL (≈ 0.196 µM)
[1]; Worldwide isolates 2011–2013, E. coli incl. non-MDR, MDR, XDR, n = 112
  MIC90: 0.5 µg/mL (≈ 0.196 µM)
[1]; clinical isolates
  MIC90 (E. coli): 1.0 µg/mL (≈ 0.392 µM)
[2]; US isolates 2010–2012, K. pneumoniae Non-MDR, n = 24
  MIC90: 4 µg/mL (≈ 1.57 µM)
[2]; Worldwide isolates 2011–2013, K. pneumoniae incl. non-MDR, MDR, XDR, n = 114
  MIC90: 4 µg/mL (≈ 1.57 µM)
[2]; all but two K. pneumoniae isolates with a colistin MIC of 8–≥32 μg mL^−1, US panel
  MIC against colistin-resistant isolates (did not surpass): ≤ 4 µg/mL
[3]; K. pneumoniae 3010
  Agar (Noble) Dilution MIC: 16 µg/mL
[3]; K. pneumoniae ST258
  Agar (Noble) Dilution MIC: 16 µg/mL
L. monocytogenes
  BMD MIC: 2 µg/mL

## O=C(O)c1cn(C2CC2)c2cc(N3CCNCC3)c(F)cc2c1=O [Ciprofloxacin, ciprofloxacin]
E. coli ATCC 25922; [4]
  MIC, Survanta (5%): ≤0.03
A. baumannii ATCC 19636; [5]
  MIC, Survanta (5%): 1
A. baumannii ATCC 19636; [6]
  MIC, Survanta (5%) replicates: 1
A. baumannii ATCC 19636; [7]
  MIC, Survanta (5%) replicates: 1
A. baumannii ATCC 19636; [8]
  MIC, Survanta (5%) replicates: 1
A. baumannii ATCC 19636; [9]
  MIC: 1 µg/mL (≈ 3.02 µM)

## CNC(C)C1CCC(N)C(OC2C(N)CC(N)C(OC3OCC(C)(O)C(NC)C3O)C2O)O1 (stereo not drawn) [Gentamicin, gentamicin, reference compound]
[1]; Escherichia coli
  MIC90: 32 µg/mL (≈ 67 µM)
[1]; [10]
  MIC90: > 32 µg/mL
[1]; [11]
  MIC90: 8 µg/mL (≈ 16.8 µM)
[1]; [12]
  MIC50: 0.5 µg/mL (≈ 1.05 µM)
  MIC90: 32 µg/mL (≈ 67 µM)
[2]; [13]
  MIC90: 8 µg/mL (≈ 16.8 µM)
[2]; [14]
  MIC90: > 32 µg/mL
[2]; [15]
  MIC50: 0.5 µg/mL (≈ 1.05 µM)
  MIC90: > 32 µg/mL
L. monocytogenes
  MIC: 0.125 µg/mL (≈ 0.262 µM)

## C[C@H]1COc2c(N3CCN(C)CC3)c(F)cc3c(=O)c(C(=O)O)cn1c23 [LEV, levofloxacin, reference compound]
[1]; Escherichia coli
  MIC90: 16 µg/mL (≈ 44.3 µM)
[1]; [12]
  MIC50: 0.06 µg/mL (≈ 0.166 µM)
  MIC90: 16 µg/mL (≈ 44.3 µM)
[2]; Klebsiella pneumoniae
  MIC90: > 32 µg/mL
[2]; [15]
  MIC50: 0.25 µg/mL (≈ 0.692 µM)
  MIC90: > 32 µg/mL
[3]; Klebsiella pneumoniae, read-out: Agar (Noble) Dilution MIC, K. pneumoniae ST258
  MIC: > 8 µg/mL

## C[C@@H](O)[C@H]1C(=O)N2C(C(=O)O)=C(S[C@@H]3CN[C@H](C(=O)N(C)C)C3)[C@H](C)[C@H]12 [Meropenem, meropenem, reference compound]
[1]; [10]
  MIC90: 16 µg/mL (≈ 41.7 µM)
[1]; [11]
  MIC90: 0.03 µg/mL (≈ 0.0782 µM)
[1]; [12]
  MIC50: ≤ 0.015 µg/mL
  MIC90: 0.03 µg/mL (≈ 0.0782 µM)
[2]; [13]
  MIC90: 0.06 µg/mL (≈ 0.156 µM)
[2]; [14]
  MIC90: > 16 µg/mL
[2]; [15]
  MIC50: 0.03 µg/mL (≈ 0.0782 µM)
  MIC90: > 16 µg/mL
L. monocytogenes
  MIC: 0.5 µg/mL (≈ 1.3 µM)

## COc1cc(Cc2cnc(N)nc2N)cc(OC)c1OC [Trimethoprim]
E. coli ATCC 25922; [4]
  MIC, Survanta (5%): 1
A. baumannii ATCC 19636; [5]
  MIC, Survanta (5%): 32
A. baumannii ATCC 19636; [16]
  MIC, Survanta (5%) replicates: >64
A. baumannii ATCC 19636; [6]
  MIC, Survanta (5%) replicates: >64
A. baumannii ATCC 19636; [7]
  MIC, Survanta (5%) replicates: 16
A. baumannii ATCC 19636; [8]
  MIC, Survanta (5%) replicates: 32
A. baumannii ATCC 19636; [9]
  MIC: 32 µg/mL (≈ 110 µM)

## colistin
E. coli ATCC 25922; [4]
  MIC, Survanta (5%): ≤0.06
E. coli ATCC 25922; E. coli ATCC 25922, MHB + 5% (v/v) lung surfactant, n=2 to 6, mode or median
  MIC, Survanta (5%): ≤ 0.06 µg/mL
[3]; K. pneumoniae SSI#3010
  Noble agar dilution MIC: 1 µg/mL
[3]; K. pneumoniae ST258
  Agar (Noble) Dilution MIC: 1 µg/mL
  Noble agar dilution MIC: 1 µg/mL
A. baumannii ATCC 19636; [5]
  MIC, Survanta (5%): 0.125
A. baumannii ATCC 19636; [16]
  MIC, Survanta (5%) replicates: 0.5
A. baumannii ATCC 19636; [6]
  MIC, Survanta (5%) replicates: 0.25
A. baumannii ATCC 19636; [7]
  MIC, Survanta (5%) replicates: 0.06
A. baumannii ATCC 19636; [8]
  MIC, Survanta (5%) replicates: 0.06
A. baumannii ATCC 19636; A. baumannii ATCC 19636, type strain, BMD with 50% human serum, mode, or median where no mode, n=4 to 6, where n=2 differs the higher value
  MIC, Serum (50%): ≤0.031
A. baumannii ATCC 19636; A. baumannii ATCC 19636, type strain, BMD with 50% human serum, replicate 1
  MIC, Serum (50%) replicates: ≤0.031
A. baumannii ATCC 19636; A. baumannii ATCC 19636, type strain, BMD with 50% human serum, replicate 2
  MIC, Serum (50%) replicates: ≤0.031
A. baumannii ATCC 19636; A. baumannii ATCC 19636, type strain, BMD with 50% human serum, replicate 3
  MIC, Serum (50%) replicates: ≤0.031
A. baumannii ATCC 19636; A. baumannii ATCC 19636, type strain, BMD with 50% human serum, replicate 4
  MIC, Serum (50%) replicates: ≤0.031
A. baumannii ATCC 19636; [9]
  MIC, Serum (50%): ≤ 0.031 µg/mL
  MIC, Survanta (5%): 0.125 µg/mL
L. monocytogenes; [17]
  BMD MIC: 16 µg/mL

## polymyxin B [PolymyxinB, reference compound]
[1]; [12]
  MIC50: 0.03 µg/mL
  MIC90: 0.03 µg/mL
[2]; [15]
  MIC50: 0.03 µg/mL
  MIC90: 0.06 µg/mL
L. monocytogenes; [17]
  BMD MIC: 4 µg/mL
